Values joined by “and” are separate entries in the source; they are usually repeats but may differ in a detail not shown here. Equal entries are not always repeated.
Experiments:
Assay in all cases: radiometric filter-binding kinase assay, Kinase HotSpot
Settings in all cases: compound 0.5 µM; ATP 10 µM
[1] = molecular target: AKT2 (human) (UniProt P31751)
[2] = molecular target: AURKB (human) (UniProt Q96GD4)
[3] = molecular target: AXL (human) (UniProt P30530)
[4] = molecular target: BRAF (human) (UniProt P15056)
BRAF (human), sequence (P15056 whole entry, looked up): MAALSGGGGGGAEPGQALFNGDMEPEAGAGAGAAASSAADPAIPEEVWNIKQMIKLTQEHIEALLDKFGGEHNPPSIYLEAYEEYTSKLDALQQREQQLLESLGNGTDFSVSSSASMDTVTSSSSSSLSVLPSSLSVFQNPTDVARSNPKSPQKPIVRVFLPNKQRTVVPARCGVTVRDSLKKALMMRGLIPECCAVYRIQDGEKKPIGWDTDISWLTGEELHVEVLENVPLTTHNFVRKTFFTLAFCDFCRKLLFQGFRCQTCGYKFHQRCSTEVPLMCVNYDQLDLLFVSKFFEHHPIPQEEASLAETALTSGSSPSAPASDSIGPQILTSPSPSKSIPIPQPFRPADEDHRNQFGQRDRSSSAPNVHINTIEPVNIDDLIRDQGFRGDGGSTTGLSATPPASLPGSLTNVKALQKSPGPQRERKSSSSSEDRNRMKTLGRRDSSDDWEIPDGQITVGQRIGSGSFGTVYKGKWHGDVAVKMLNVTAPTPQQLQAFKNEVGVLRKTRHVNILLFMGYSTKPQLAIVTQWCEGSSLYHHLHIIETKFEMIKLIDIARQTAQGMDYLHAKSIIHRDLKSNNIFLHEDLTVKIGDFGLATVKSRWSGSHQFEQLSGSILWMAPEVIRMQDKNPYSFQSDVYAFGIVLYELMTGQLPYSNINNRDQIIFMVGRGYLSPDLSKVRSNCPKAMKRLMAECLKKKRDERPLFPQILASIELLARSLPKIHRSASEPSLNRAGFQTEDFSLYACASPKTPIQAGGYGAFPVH

[5] = molecular target: CAMKK1 (human) (UniProt Q8N5S9)
[6] = molecular target: CDK3 CCNE1 (human) (UniProt Q00526+P24864)
[7] = molecular target: CDK6 CCND1 (human) (UniProt Q00534+P24385)
[8] = molecular target: CLK2 (human) (UniProt P49760)
[9] = molecular target: CSNK1A1 (human) (UniProt P48729)
[10] = molecular target: CSNK2A2 (human) (UniProt P19784)
CSNK2A2 (human), sequence (P19784 whole entry, looked up): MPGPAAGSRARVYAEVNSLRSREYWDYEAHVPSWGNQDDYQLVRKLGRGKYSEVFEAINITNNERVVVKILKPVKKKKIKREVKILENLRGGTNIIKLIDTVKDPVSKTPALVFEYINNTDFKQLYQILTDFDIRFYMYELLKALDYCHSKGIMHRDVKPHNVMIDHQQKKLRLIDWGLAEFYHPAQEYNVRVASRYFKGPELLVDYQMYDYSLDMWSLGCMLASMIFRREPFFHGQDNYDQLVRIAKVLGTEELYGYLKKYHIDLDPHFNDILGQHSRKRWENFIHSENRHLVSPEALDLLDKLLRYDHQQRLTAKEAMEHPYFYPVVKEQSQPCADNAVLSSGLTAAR

[11] = molecular target: EPHA4 (human) (UniProt P54764)
[12] = molecular target: ERBB4 (human) (UniProt Q15303)
[13] = molecular target: HIPK4 (human) (UniProt Q8NE63)
[14] = molecular target: IKBKE (human) (UniProt Q14164)
[15] = molecular target: KIT (human) (UniProt P10721)
[16] = molecular target: LRRK2 (human) (UniProt Q5S007)
LRRK2 (human), sequence (Q5S007 whole entry, looked up): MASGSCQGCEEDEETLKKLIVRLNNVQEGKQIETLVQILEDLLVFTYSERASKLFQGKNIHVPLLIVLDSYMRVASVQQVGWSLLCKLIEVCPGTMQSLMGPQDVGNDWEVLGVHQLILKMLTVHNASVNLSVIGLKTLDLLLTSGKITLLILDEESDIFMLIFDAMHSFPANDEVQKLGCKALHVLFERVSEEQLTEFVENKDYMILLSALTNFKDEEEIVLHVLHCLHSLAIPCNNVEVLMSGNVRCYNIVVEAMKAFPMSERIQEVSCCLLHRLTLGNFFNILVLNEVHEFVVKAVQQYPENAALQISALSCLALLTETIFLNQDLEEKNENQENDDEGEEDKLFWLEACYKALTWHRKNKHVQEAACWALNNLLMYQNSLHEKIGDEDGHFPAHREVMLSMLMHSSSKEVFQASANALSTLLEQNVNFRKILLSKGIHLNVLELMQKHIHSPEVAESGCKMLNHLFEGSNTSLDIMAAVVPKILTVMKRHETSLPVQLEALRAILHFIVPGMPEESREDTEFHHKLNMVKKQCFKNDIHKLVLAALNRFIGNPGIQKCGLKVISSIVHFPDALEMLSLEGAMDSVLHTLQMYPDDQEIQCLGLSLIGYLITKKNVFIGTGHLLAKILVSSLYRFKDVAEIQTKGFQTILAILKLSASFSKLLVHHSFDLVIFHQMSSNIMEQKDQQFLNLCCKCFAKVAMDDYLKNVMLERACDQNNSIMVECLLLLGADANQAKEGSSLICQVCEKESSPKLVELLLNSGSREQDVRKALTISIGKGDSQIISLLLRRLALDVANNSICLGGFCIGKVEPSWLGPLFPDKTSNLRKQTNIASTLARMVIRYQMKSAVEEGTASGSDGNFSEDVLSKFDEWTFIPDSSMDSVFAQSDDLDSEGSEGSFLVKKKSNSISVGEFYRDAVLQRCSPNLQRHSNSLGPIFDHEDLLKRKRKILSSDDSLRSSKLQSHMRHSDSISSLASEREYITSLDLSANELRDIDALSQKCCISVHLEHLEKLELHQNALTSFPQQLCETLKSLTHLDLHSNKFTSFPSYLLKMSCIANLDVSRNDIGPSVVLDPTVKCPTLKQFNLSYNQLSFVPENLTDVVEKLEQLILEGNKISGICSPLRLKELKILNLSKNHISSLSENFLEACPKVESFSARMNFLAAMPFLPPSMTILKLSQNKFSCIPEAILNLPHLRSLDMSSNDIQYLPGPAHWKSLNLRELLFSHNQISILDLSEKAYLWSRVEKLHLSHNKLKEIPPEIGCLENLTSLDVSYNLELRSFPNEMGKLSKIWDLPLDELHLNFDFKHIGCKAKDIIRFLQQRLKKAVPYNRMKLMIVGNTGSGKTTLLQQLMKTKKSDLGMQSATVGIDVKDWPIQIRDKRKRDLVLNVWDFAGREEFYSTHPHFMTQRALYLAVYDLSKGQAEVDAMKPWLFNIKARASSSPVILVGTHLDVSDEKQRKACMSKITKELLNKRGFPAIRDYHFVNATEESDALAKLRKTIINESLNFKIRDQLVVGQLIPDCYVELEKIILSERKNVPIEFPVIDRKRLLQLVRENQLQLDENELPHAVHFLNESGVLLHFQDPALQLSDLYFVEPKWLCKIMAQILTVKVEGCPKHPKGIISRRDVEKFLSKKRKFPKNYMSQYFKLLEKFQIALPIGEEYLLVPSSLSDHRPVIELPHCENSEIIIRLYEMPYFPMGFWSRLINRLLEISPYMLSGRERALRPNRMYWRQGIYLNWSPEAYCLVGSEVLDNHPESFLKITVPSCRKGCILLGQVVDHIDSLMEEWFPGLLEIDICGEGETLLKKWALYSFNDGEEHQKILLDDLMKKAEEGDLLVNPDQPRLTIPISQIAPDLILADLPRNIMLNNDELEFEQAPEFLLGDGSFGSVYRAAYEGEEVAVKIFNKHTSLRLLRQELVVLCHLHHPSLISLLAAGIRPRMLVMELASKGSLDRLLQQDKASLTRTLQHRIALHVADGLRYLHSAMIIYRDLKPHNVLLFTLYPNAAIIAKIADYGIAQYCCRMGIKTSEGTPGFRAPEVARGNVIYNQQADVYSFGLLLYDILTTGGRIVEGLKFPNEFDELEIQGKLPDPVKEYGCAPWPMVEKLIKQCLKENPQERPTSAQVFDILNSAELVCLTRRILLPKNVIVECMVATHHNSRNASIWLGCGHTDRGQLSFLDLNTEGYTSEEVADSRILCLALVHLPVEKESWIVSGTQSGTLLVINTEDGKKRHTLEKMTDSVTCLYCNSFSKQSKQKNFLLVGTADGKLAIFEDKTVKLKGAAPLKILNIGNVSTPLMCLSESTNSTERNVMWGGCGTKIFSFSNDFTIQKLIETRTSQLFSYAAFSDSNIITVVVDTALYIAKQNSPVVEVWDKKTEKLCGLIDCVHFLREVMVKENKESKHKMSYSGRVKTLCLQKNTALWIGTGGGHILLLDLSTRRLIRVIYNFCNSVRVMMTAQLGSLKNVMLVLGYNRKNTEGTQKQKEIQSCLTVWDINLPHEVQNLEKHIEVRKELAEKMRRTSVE

[17] = molecular target: MAP3K10 (human) (UniProt Q02779)
[18] = molecular target: MAP3K9 (human) (UniProt P80192)
[19] = molecular target: MAPK11 (human) (UniProt Q15759)
MAPK11 (human), sequence (Q15759 whole entry, looked up): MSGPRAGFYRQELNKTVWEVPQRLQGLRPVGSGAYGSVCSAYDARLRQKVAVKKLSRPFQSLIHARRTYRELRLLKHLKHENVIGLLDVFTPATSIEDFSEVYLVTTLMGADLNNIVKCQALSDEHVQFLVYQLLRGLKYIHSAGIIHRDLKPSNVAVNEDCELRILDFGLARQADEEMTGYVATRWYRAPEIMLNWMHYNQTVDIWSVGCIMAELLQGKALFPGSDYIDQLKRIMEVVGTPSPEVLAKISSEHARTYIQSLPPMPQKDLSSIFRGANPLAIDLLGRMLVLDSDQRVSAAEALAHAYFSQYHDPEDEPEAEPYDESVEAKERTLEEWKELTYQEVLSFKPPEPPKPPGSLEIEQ

[20] = molecular target: MAPK3 (human) (UniProt P27361)
[21] = molecular target: MAPKAPK2 (human) (UniProt P49137)
[22] = molecular target: MELK (human) (UniProt Q14680)
[23] = molecular target: MST1R (human) (UniProt Q04912)
[24] = molecular target: NUAK1 (human) (UniProt O60285)
[25] = molecular target: NUAK2 (human) (UniProt Q9H093)
[26] = molecular target: PAK4 (human) (UniProt O96013)
[27] = molecular target: PAK6 (human) (UniProt Q9NQU5)
[28] = molecular target: PIM1 (human) (UniProt P11309)
[29] = molecular target: PRKACG (human) (UniProt P22612)
[30] = molecular target: PRKD2 (human) (UniProt Q9BZL6)
[31] = molecular target: PRKG1 (human) (UniProt Q13976)
[32] = molecular target: RPS6KA3 KD1 KD2 (human) (UniProt P51812)
[33] = molecular target: SGK2 (human) (UniProt Q9HBY8)
[34] = molecular target: SRPK2 (human) (UniProt P78362)
[35] = molecular target: STK10 (human) (UniProt O94804)
[36] = molecular target: STK25 (human) (UniProt O00506)
[37] = molecular target: STK39 (human) (UniProt Q9UEW8)
[38] = molecular target: TAOK3 (human) (UniProt Q9H2K8)
[39] = molecular target: TEK (human) (UniProt Q02763)
[40] = molecular target: TSSK2 (human) (UniProt Q96PF2)
[41] = molecular target: WNK3 (human) (UniProt Q9BYP7)

AXL (human), sequence (P30530 whole entry, looked up): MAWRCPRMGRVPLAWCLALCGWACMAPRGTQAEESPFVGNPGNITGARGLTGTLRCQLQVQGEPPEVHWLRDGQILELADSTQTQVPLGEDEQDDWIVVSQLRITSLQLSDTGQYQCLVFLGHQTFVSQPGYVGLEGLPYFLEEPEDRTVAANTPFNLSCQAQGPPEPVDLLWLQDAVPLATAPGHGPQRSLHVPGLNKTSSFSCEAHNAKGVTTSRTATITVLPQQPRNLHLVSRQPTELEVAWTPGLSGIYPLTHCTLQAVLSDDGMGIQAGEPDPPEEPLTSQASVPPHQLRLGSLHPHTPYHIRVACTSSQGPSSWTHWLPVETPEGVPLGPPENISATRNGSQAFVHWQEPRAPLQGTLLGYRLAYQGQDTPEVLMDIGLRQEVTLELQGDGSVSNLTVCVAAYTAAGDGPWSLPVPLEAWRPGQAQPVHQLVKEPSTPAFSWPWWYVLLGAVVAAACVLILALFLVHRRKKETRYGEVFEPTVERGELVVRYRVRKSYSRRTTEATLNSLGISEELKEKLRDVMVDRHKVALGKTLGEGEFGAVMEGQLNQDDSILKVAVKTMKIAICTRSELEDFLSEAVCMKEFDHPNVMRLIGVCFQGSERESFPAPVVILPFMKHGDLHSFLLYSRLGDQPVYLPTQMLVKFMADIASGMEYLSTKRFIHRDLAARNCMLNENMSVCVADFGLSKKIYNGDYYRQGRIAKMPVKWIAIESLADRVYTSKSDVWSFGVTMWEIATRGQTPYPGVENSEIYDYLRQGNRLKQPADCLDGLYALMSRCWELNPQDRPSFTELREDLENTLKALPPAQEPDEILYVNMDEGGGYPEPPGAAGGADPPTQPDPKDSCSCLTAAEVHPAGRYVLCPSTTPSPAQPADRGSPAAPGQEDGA

Compound	residual activity [1]	residual activity [2]	residual activity [3]	residual activity [4]	residual activity [5]	residual activity [6]	residual activity [7]	residual activity [8]	residual activity [9]	residual activity [10]	residual activity [11]	residual activity [12]	residual activity [13]	residual activity [14]	residual activity [15]	residual activity [16]	residual activity [17]	residual activity [18]	residual activity [19]	residual activity [20]	further results
Cc1[nH]c(/C=C2\C(=O)Nc3ccc(S(=O)(=O)N(C)c4cccc(Cl)c4)cc32)c(C)c1C(=O)N1CCN(C)CC1	102%	19.2%	66.5%	91.9%	93.3%	89.4%	84.8%	5.1%	79.2%	84.6%	80.7%	105%	103%	74.2%	51.3%	6.63%	74%	95.2%	103%	106%	residual activity [21]: 104%; residual activity [22]: 78.9%; residual activity [23]: 103%; residual activity [24]: 15.9%; residual activity [25]: 61.9%; residual activity [26]: 101%; residual activity [27]: 108%; residual activity [28]: 103%; residual activity [29]: 111%; residual activity [30]: 58.3%; residual activity [31]: 93.2% and 97.1%; residual activity [32]: 76.8%; residual activity [33]: 103%; residual activity [34]: 60.5%; residual activity [35]: 9.05%; residual activity [36]: 91%; residual activity [37]: 84.7%; residual activity [38]: 61.5%; residual activity [39]: 90.8%; residual activity [40]: 96.3%
Nc1cccc(-c2cc3c(Oc4cccc(O)c4)ncnc3[nH]2)c1	109%	71.9%	75.9%	53.2%	113%	82.3%	82.2%	98.8%	61.8%	96.5%	48.3%	75.8%	103%	88.1%	35.1%	93.4%	79.2%	16.2%	108%	86.9%	residual activity [21]: 108%; residual activity [22]: 93.4%; residual activity [23]: 103%; residual activity [24]: 37%; residual activity [25]: 90.3%; residual activity [26]: 99.8%; residual activity [27]: 109%; residual activity [28]: 85.9%; residual activity [30]: 81.7%; residual activity [31]: 103%; residual activity [32]: 96.9%; residual activity [33]: 96.2%; residual activity [34]: 99.1%; residual activity [35]: 45.8%; residual activity [36]: 91.6%; residual activity [37]: 119%; residual activity [38]: 93.5%; residual activity [39]: 60.7%; residual activity [40]: 95.6%; residual activity [41]: 88.5%
O=C(Nc1cccc(Nc2nccc(Nc3cccc(C(F)(F)F)c3)n2)c1)C1CC1	107%	72.8%	104%	104%	97.9%	98.1%	93.4%	87.6%	95.8%	95.4%	81%	103%	111%	97.5%	86.1%	93.7%	96.4%	95.2%	103%	98.2%	residual activity [21]: 102%; residual activity [22]: 101%; residual activity [23]: 92.6%; residual activity [24]: 67.2%; residual activity [25]: 94.3%; residual activity [26]: 87.4%; residual activity [27]: 100%; residual activity [28]: 103%; residual activity [30]: 101%; residual activity [31]: 97.6% and 99.3%; residual activity [32]: 100%; residual activity [33]: 118%; residual activity [34]: 104%; residual activity [35]: 90.1%; residual activity [36]: 98.1%; residual activity [37]: 94.1%; residual activity [38]: 110%; residual activity [39]: 101%; residual activity [40]: 97.1%; residual activity [41]: 105%
c1ccc(-c2n[nH]cc2-c2ccnc3ccccc23)nc1	93%	96%	101%	95.7%	109%	94.2%	91.1%	99.4%	74.6%	96.7%	98%	85.7%	89.9%	101%	93.5%	93.7%	104%	90.4%	106%	101%	residual activity [21]: 100%; residual activity [22]: 93.3%; residual activity [23]: 99.9%; residual activity [24]: 95.5%; residual activity [25]: 135%; residual activity [26]: 76.9%; residual activity [27]: 106%; residual activity [28]: 107%; residual activity [29]: 92.9%; residual activity [30]: 66.9%; residual activity [31]: 86% and 92.7%; residual activity [32]: 101%; residual activity [33]: 101%; residual activity [34]: 97.2%; residual activity [35]: 90.1%; residual activity [36]: 96.9%; residual activity [37]: 88.7%; residual activity [38]: 92.8%; residual activity [39]: 98.8%; residual activity [40]: 83.5%
c1ccc(-c2n[nH]c3c2oc2ccccc23)cc1	112%	50.8%	101%	96.9%	97%	90%	90.4%	94.8%	73.8%	85.6%	95.5%	89.7%	103%	101%	38%	91.4%	91.4%	97.5%	95.7%	87.3%	residual activity [21]: 99.1%; residual activity [22]: 77%; residual activity [23]: 87.4%; residual activity [24]: 96.2%; residual activity [25]: 95.2%; residual activity [26]: 111%; residual activity [27]: 87.5%; residual activity [28]: 83.3%; residual activity [30]: 86.9%; residual activity [31]: 102% and 103%; residual activity [32]: 109%; residual activity [33]: 93%; residual activity [34]: 95%; residual activity [35]: 108%; residual activity [36]: 89.6%; residual activity [37]: 120%; residual activity [38]: 94.8%; residual activity [39]: 96.8%; residual activity [40]: 97.6%; residual activity [41]: 91.5%

— the kinase profiling compilation of Christmann-Franck et al. (2016)
